Assays:
[1] = target: T1, maize starch synthase SSI-3 (STSI-3), N-terminally truncated SSI, first 93 amino acids of SSI-1 deleted, N-terminus SIVFVTGE (SEQ ID NO:66) (Zea mays, UniProt O49064); test: ADPGlc kinetics of starch synthase SSI-3; assay type: biochemical; settings: 5 mg/ml amylopectin as primer, 37° C.
T1 sequence (O49064 with tags, fused parts or gaps): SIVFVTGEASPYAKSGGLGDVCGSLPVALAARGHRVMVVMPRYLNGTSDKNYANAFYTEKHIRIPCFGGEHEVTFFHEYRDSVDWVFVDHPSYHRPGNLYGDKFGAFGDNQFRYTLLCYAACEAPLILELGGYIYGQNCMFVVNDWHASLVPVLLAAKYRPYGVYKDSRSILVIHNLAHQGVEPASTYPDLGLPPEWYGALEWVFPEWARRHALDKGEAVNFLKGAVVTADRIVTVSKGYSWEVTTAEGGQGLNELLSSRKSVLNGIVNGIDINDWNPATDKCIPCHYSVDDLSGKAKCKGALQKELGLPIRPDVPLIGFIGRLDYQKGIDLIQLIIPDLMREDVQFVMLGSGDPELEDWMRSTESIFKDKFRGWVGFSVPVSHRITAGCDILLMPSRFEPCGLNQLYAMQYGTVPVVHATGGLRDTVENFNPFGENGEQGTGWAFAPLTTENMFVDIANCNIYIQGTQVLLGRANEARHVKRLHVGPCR
Source text: FIG. 58. SSI-1, SSI-2, and SSI-3 construct design. Three forms of SSI were constructed in the pET expression (see Methods). pExs10a encodes SSI-1, the full length maize SSI (583 amino acids) which has the N-terminal sequence CVAELSREGP (SEQ ID NO:64). pExs8 encodes a truncated SSI, SSI-2, with amino acids # 8-52 deleted from the N-terminus of SSI-1 and which has the N-terminal sequence CVAELSR/DLG (SEQ ID NO:65). pExs1d encodes the most truncated form of SSI, SSI-3, with the first 93 amino acids deleted from SSI-1 and which has the N-terminal sequence SIVFVTGE (SEQ ID NO:66). A depiction of the waxygene, encoding GBSS, which has the N-terminal sequence ASAGMNW (SEQ ID NO:67), is also included for comparison. The amino acid motif KS/TGGL (SEQ ID NO:9), the putative binding site for ADGPGlc, in indicated by the triangles. The KS/TGGL (SEQ ID NO:9) motif is located 18 amino acids from the N-terminus in GBSS, while the motif is 106 amino acids from the N-terminus in maize SSI. Drawing not to scale.
5 mL of supernatant were used to assay STS and SBE activities as previously described (Preiss) with minor modification. […] The unincorporated [^14C]-ADPGlc was separated with Dowex anion exchange column (200-400 mesh, Sigma Chemical Co.). […] SBE activity was determined by phosphorylase stimulation assay. One unit of activity is defined as 1 mmol Glc incorporated into the a-glucan per min at. […]

[2] = target: maize starch synthase SSIIa-1, putative full length SSIIa (669 amino acids), N-terminus AEAEAGGK (SEQ ID NO:68) (Zea mays, UniProt A0A804PX87); test: ADPGlc kinetics of starch synthase SSIIa-1; assay type: biochemical; settings: for Vmax (ADPGlc kinetics): amylopectin as primer, 27° C.
Chain of maize starch synthase SSIIa-1, putative full length SSIIa (669 amino acids), N-terminus AEAEAGGK (SEQ ID NO:68) (A0A804PX87 entry or part of it): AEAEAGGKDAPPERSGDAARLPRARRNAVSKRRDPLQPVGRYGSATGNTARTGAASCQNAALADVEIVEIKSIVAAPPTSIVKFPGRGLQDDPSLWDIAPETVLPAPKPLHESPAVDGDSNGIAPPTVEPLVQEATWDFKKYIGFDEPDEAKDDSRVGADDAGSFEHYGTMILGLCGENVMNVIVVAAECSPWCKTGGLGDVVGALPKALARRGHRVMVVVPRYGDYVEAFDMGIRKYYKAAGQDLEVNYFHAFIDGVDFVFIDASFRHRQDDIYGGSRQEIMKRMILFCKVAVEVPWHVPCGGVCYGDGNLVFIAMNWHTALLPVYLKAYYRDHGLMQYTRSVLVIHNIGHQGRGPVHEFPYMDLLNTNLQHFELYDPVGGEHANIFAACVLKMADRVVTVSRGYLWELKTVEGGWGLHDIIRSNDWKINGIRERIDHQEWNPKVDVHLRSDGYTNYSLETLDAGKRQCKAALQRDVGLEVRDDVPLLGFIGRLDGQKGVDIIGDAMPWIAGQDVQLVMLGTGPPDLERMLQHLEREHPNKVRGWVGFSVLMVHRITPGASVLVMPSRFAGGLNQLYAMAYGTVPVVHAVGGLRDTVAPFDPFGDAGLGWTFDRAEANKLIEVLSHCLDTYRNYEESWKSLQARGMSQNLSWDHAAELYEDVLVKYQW
Source text: FIG. 59. SSIIa-1 and SSIIa-2 construct diagram. Two forms of SSIIa were constructed in the pET expression system. pExs3c encodes SSIIa-1, the putative full length maize SSIIa which has the N-terminal sequence AEAEAGGK (SEQ ID NO:68). […] A depiction of the waxy gene, encoding GBSS which has the N-terminal sequence ASAGMNVV (SEQ ID NO:67), is also included for comparison. The amino acid motif KTGGL (SEQ ID NO:10), the putative binding site for ADPGlc, is indicated by the triangles. The KTGGL (SEQ ID NO:10) motif is located 18 amino acids from the N-terminus in GBSS, while the motif is 194 amino acids from the N-terminus in maize SSIIa.
5 mL of supernatant were used to assay STS and SBE activities as previously described (Preiss) with minor modification. […] […] The unincorporated [^14C]-ADPGlc was separated with Dowex anion exchange column (200-400 mesh, Sigma Chemical Co.). One unit of activity is defined as 1 nmol Glc incorporated into the a-glucan per min at 25° C. SBE activity was determined by phosphorylase stimulation assay. One unit of activity is defined as 1 mmol Glc incorporated into the a-glucan per min at. 30° C.
For the recombinant SS purification, the cell pellet was resuspended in sonication buffer (50 mM Tris-acetate, pH 7.5, 10 mM EDTA, and 5 mMDTT; 7 ml buffer per gram of cell mass), and cells were lysed using a Fisher 550 Sonic Dismembrator with 5×1 min. bursts with 30 sec. intervals. The homogenate was centrifuged at 9600 g for 30 minutes. SSI in the supernatant was then precipitated by slowly adding neutralized saturated ammonium sulfate to 40% saturation. After stirring on ice for an additional 50 minutes, proteins were collected by centrifugation at 12500 g for 45 minutes. The protein pellet was then redissolved in buffer A (50 mM Tris, pH 5.5, 1 mM EDTA, and 5 mM DTT) containing 0.1 M KCl and dialyzed against the same buffer, with one change of buffer. After dialysis, the sample was centrifuged at 13000 g for 20 minutes to remove insoluble materials. […]

Nc1ncnc2c1ncn2[C@@H]1O[C@H](COP(=O)(O)OP(=O)(O)O[C@H]2O[C@H](CO)[C@@H](O)[C@H](O)[C@H]2O)[C@@H](O)[C@H]1O [ADPGlc, adenosine diphosphate glucose]
Vm (ADPGlc kinetics) ([1]; +citrate): 26.4 ± 1.4 μmol/min/mg protein | Vm (ADPGlc kinetics) ([1]; −citrate): 14.7 ± 1.3 μmol/min/mg protein | Vmax (ADPGlc kinetics) ([2]; +citrate): 23.0 ± 2.5 μmol/min/mg protein | Vmax (ADPGlc kinetics) ([2]; −citrate): 12.1 ± 0.8 μmol/min/mg protein | increase of Km of ADPGlc upon raising the assay temperature ([2]; from 27° C. to 37° C.): 2 fold
